US20220023231A1, “METHOD OF TREATING POSTPRANDIAL INFLAMMATION AND PREVENTING WEIGHT GAIN” (DASMAN DIABETES INSTITUTE, priority 2020, published 2022)

Columns and labels:
THP-1 cells [1] = assay: Flow cytometry (FACS) assessment of lipid accumulation in TNF-α stimulated THP-1 derived macrophages; type: cell-based, Human; conditions: in response to the presence of TNF-α
Procedure: (§1) Cell culture: Human monocytic leukemia cell line (THP-1) cells were purchased from American Type Culture Collection (ATCC). Cell cultures were maintained in RPMI-1640 culture medium (Gibco, Life Technologies, Grand Island, USA) supplemented with 10% fetal bovine serum (Gibco, Life Technologies, Grand Island, N.Y., USA), 2 mM glutamine (Gibco, Invitrogen, Grand Island, N.Y., USA), 1 mM sodium pyruvate, 10 mM HEPES, 100 ug/m1 Normocin 50 U/ml penicillin and 50 μg/m1 streptomycin (P/S; Gibco, Invitrogen, Grand Island, N.Y., USA) and incubated at 37° C. (with humidity) in 5% CO2.
(§2) Cell stimulation: Prior to stimulation, THP-1 cells were plated in 24-well plates (Costar, Corning Incorporated, Corning, N.Y., USA) at 5×10^5 cells/well cell density unless indicated otherwise. […]

THP-1 cells [2] = assay: Oil Red O staining of lipid accumulation in TNF-α stimulated THP-1 derived macrophages; type: cell-based, Human; conditions: in response to TNF-α (10 ng/ml)
Procedure: as §1, §2
Oil Red O staining: To determine the degree of lipid accumulation, the accumulation of cytoplasmic triglycerides in cells were measured by staining with Oil Red O (SigmaAldrich, St Louis, Mo., USA). […]

[3] = tested on: pro-inflammatory monocytes (CD45+/Ly6C/CD11b+ cells); assay: Acute high fat food feeding in mice, pro-inflammatory monocytes in blood by flow cytometry; type: in vivo, mouse
Procedure: Further experiments were developed to test the utility of Triacsin C as an anti-inflammatory and/or weight gain prevention drug in a mouse model. Base line blood samples were taken from each mouse before feeding. Mice were then administered either Triacsin C (10 mg/m1) or a vehicle (control) in a drinkable form 30 minutes prior to introducing them to high fat food. Four hours after food consumption another blood sample was collected from each mouse and the inflammatory response was measured using flow cytometry to look for pro-inflammatory monocytes (CD45^+/Ly6C/CD11b^+ cells). (See FIGS. 7(A)-7(B)) The experiment was repeated 5 times on non-consecutive days and also confirmed that the dose was safe.
(§3) A further experiment was designed to test whether constant daily doses of Triacsin C could prevent weight gain (or the development of obesity and other weight gain related diseases). […] Mice were placed on a constant high fat diet (HFD) for up to 5 weeks in the presence of a daily (drinkable) dose of either Triacsin C or the vehicle control (FIG. 9(A)).

THP-1 cells [4] = assay: IL-1β ELISA and TNF-α / CD11b mRNA expression in macrophage cells after TNF-α; type: cell-based, Human; conditions: in response to TNF-α treatment
Procedure: as §1, §2

human macrophages = assay: Inflammatory and infiltration marker gene expression in human macrophages exposed to palmitic acid; type: cell-based; conditions: 30 minutes pre-treatment before addition of palmitic acid
[5] = Constant high fat diet (HFD) in mice with daily drinkable dose; type: in vivo, mouse
Excerpt: as §3

macrophage = assay: Fatty acid uptake related gene expression and intracellular fat in macrophages/monocytes exposed to palmitic acid; type: cell-based
[6] = daily dose, HFD, versus vehicle control
[7] = low daily drinkable dose, HFD up to 5 weeks

SMILES | lipid accumulation (FACS, cell size and granulation) (THP-1 cells [1]) | lipid accumulation (Oil Red O staining) (THP-1 cells [2]) | safety of the dose ([3]; 10 mg/m1 drinkable, repeated 5 times on non-consecutive days) | inflammatory response in monocytes (CD45+, Ly6C+, CD11b+ cells) ([3]; drinkable, 30 minutes prior to high fat food, blood four hours after food) | reduction of inflammatory upregulation ([3]; lower dose, four-hour acute high fat diet feeding) | pro-inflammatory monocytes ([3]; lower dose, four-hour acute high fat diet feeding, control 34.2%) | inflammatory markers (IL-1B protein, TNF-α mRNA, CD11b mRNA) (THP-1 cells [4]) | infiltration markers (CD11b, CCR2, CD80) (human macrophages) | upregulation of monocytic inflammatory markers (IL-1b, CD11c, HLA-DR) (human macrophages) | adipose tissue (fat) of livers [5, 6] | liver size [5, 6] | increase in inflammatory monocytes from long term HFD [5, 7] | weight gain resulting from HFD [5, 7] | amount of intracellular fat found within monocytes (macrophage; data not shown) | expression of fatty acid uptake-related genes (macrophage; pre-treatment, response to palmitic acid (FIG. 5))
CCOC(=O)[C@@]1(CCCCCCOc2ccc(Cl)cc2)CO1 [Etomoxir] | increased lipid accumulation | – | – | – | – | – | – | – | – | – | – | – | – | – | –
CCC/C=C/C/C=C/C=C/C=NNN=O [Triacsin C, N-(((2E,4E,7E)-undeca-2,4,7-trienylidene)amino)nitrous amide] | no significant change in apparent lipid accumulation | prevents lipid accumulation | safe | inhibit the inflammatory response in monocytes | 10% | 25.4% | little to no change in inflammatory markers | reduce infiltration markers | reduce the upregulation of monocytic inflammatory markers | significantly less adipose tissue | smaller | prevented the increase in inflammatory monocytes | dramatically prevented | reduced the amount of intracellular fat found within monocytes | inhibited expression of fatty acid uptake-related genes
